Measured values reported in patent US20250228865A1, “COMPOUNDS FOR ENHANCING READ THROUGH OF GENES CONTAINING PREMATURE TERMINATION CODONS AND METHODS FOR MAKING AND USING THE SAME” (Sanofi US Services Inc., priority 2022, published 2025).
pEC50: −log10 of the molar value.

Legend:
[1] = tested on: recombinant human CFTR carrying the premature stop codon (PTC) mutation G542X; test: CFTR-PTC mutant translation readthrough, Nanoluc tagged CFTR luminescence (G542X cell line); type: cell-based; conditions: in combination with G418, G542X cell line; for CFTR G542X ACTIVITY Fold 10 μM G-418: fold over 10 μM G-418; for pEC50: 16HBE cells
In short: (§1)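 16HBE cells stably expressing Nanoluc-tagged human CFTR with G542X or R1162X, in medium with 3 μM VX-809, treated 48 h at 37 °C with compound (10-point, 2-fold, top 50 μM final) alone or with 10 μM G418. Live-cell Nanoluc luminescence normalised to a maximally effective G418 (125-250 μM).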

[2] = tested on: recombinant human CFTR carrying the premature stop codon (PTC) mutation R1162X; test: CFTR-PTC mutant translation readthrough, Nanoluc tagged CFTR luminescence (R1162X cell line); type: cell-based; conditions: for CFTR R1162X ACTIVITY Fold 10 μM G-418: fold over 10 μM G-418, in combination with G418; for pEC50: in combination with G418, 16HBE cells, read-out: CFTR R1162X ACTIVITY EC50
In short: as §1

SMILES	CFTR G542X ACTIVITY Fold 10 μM G-418 [1]	pEC50 [1]	CFTR R1162X ACTIVITY Fold 10 μM G-418 [2]	pEC50 [2]
OC1(c2ccccc2)CCN(c2ncc(OCc3c(Cl)cccc3Cl)cn2)CC1 [1-[5-[(2,6-dichlorophenyl)methoxy]pyrimidin-2-yl]-4-phenyl-piperidin-4-ol]	A′ (A′ = ≥10X)	> 6.00	A′ (A′ = ≥10X)	5.00 to 6.00
Cc1cccc(C(F)(F)F)c1COc1ccc(N2C[C@@H](CO)NC2=O)nc1	A′ (A′ = ≥10X)	> 6.00	A′ (A′ = ≥10X)	> 6.00
CCc1cccc(C(F)(F)F)c1COc1ccc(N2CCOC(CO)C2)cc1 (centres unmarked) [[4-[4-[[2-ethyl-6-(trifluoromethyl)phenyl]methoxy]phenyl]morpholin-2-yl]methanol]	A′ (A′ = ≥10X)	> 6.00	A′ (A′ = ≥10X)	> 6.00
OCc1cn(-c2ncc(OCc3c(Cl)cccc3OC(F)F)cn2)cn1	A′ (A′ = ≥10X)	5.00 to 6.00	B′ (B′ = ≥5X to <10X)	5.00 to 6.00
OCc1nnc(-c2ccc(OCc3c(Cl)cccc3C(F)(F)F)cn2)o1	C′ (C′ = <5X)	> 6.00	C′ (C′ = <5X)	> 6.00
O=C1CN(c2ncc(OCc3c(Cl)cccc3C(F)(F)F)cn2)C[C@H](CO)N1	A′ (A′ = ≥10X)	5.00 to 6.00	A′ (A′ = ≥10X)	5.00 to 6.00
Cc1cccc(C(F)(F)F)c1COc1cnc(-n2cc(CO)nn2)nc1	A′ (A′ = ≥10X)	5.00 to 6.00	A′ (A′ = ≥10X)	5.00 to 6.00
Cc1cccc(C(F)(F)F)c1COc1ccc(-n2ncc(CO)n2)nc1	A′ (A′ = ≥10X)	> 6.00	A′ (A′ = ≥10X)	> 6.00
FC(F)(F)c1cccc(Cl)c1COc1cnc(N2CCC3(CCCNC3)C2)nc1 (centres unmarked)	A′ (A′ = ≥10X)	< 5.00	A′ (A′ = ≥10X)	5.00 to 6.00
Clc1cccc(Cl)c1COc1ccc(-n2ccnc2)cc1 [1-[4-[(2,6-dichlorophenyl)methoxy]phenyl]imidazole]	B′ (B′ = ≥5X to <10X)	5.00 to 6.00	A′ (A′ = ≥10X)	< 5.00
O=C(O)C1CCCN(c2ncc(OCc3c(Cl)cccc3C(F)(F)F)cn2)C1 (centres unmarked) [1-[5-[[2-chloro-6-(trifluoromethyl)phenyl]methoxy]pyrimidin-]	C′ (C′ = <5X)	5.00 to 6.00	–	> 6.00
Clc1cccc(Cl)c1COc1cnc(N2CC3(CCCOC3)C2)nc1 [2-[5-[(2,6-dichlorophenyl)methoxy]pyrimidin-2-yl]-6-oxa-2-azaspiro[3.5]nonane]	A′ (A′ = ≥10X)	> 6.00	A′ (A′ = ≥10X)	5.00 to 6.00
Cc1cccc(C(F)(F)F)c1COc1ccc(-n2cnc(CO)n2)nc1	A′ (A′ = ≥10X)	> 6.00	A′ (A′ = ≥10X)	> 6.00
Cc1cccc(C)c1COc1ccc(-n2ccc(CO)n2)nc1 [[1-[5-[(2,6-dimethylphenyl)methoxy]-2-pyridyl]pyrazol-3-yl]methanol]	A′ (A′ = ≥10X)	5.00 to 6.00	A′ (A′ = ≥10X)	5.00 to 6.00
Cc1cccc(C(F)(F)F)c1COc1cnc(N2C[C@H](O)C[C@H](O)C2)nc1	A′ (A′ = ≥10X)	5.00 to 6.00	A′ (A′ = ≥10X)	5.00 to 6.00
Cc1cccc(C(F)(F)F)c1COc1cnc(N2C(=O)CN(Cc3ccccc3)C2=O)nc1	A′ (A′ = ≥10X)	> 6.00	A′ (A′ = ≥10X)	> 6.00
NC(=O)NCC1CN(c2ncc(OCc3c(Cl)cccc3Cl)cn2)CCO1 (centres unmarked) [[4-[5-[(2,6-dichlorophenyl)methoxy]pyrimidin-2-yl]morpholin-2-yl]methylurea]	A′ (A′ = ≥10X)	5.00 to 6.00	B′ (B′ = ≥5X to <10X)	5.00 to 6.00
Cc1cccc(C(F)(F)F)c1COc1ccc(-n2cnc(CN)n2)cc1	A′ (A′ = ≥10X)	> 6.00	A′ (A′ = ≥10X)	5.00 to 6.00
